Tested on: Cell Necrosis
Assay: Cell necrosis assay / cell viability assay (necrosis inhibitor activity)
Type: cell-based
Details: not given

Which EC50 does the source give for O=C(N1CCN(Cc2ccccc2)CC1)N1N=CCC1c1ccccc1 (stereo not drawn) [Compound 97, (4-benzylpiperazin-1-yl)(5-phenyl-4,5-dihydro-1H-pyrazol-1-yl)methanone] here?
Its EC50 is 1 to 10 µM.

Same assay, conditions: necrosis inhibitor activity; EC data for 14-191 extrapolated; read-out: EC50

Which EC50 does the source give for O=C(N1CCN(c2ccccc2)CC1)N1N=CCC1c1ccccc1 (stereo not drawn) [Compound 91, (5-phenyl-4,5-dihydro-1H-pyrazol-1-yl)(4-phenylpiperazin-1-yl)methanone] here?
Its EC50 is 1 to 10 µM.

With O=C(N1CCN(c2nccs2)CC1)N1N=CCC1c1ccccc1 (stereo not drawn) [Compound 92, (5-phenyl-4,5-dihydro-1H-pyrazol-1-yl)(4-(thiazol-2-yl)piperazin-1-yl)methanone] as the molecule, how does the EC50 read?
The EC50 was 0.001 to 1 µM.

How did the EC50 turn out when O=C(C1CC1)N1CCN(C(=O)N2N=CCC2c2ccccc2)CC1 (stereo not drawn) [Compound 93, (4-(cyclopropanecarbonyl)piperazin-1-yl)(5-phenyl-4,5-dihydro-1H-pyrazol-1-yl)methanone] was run?
The EC50 was 1 to 10 µM.

For O=C(c1ccco1)N1CCN(C(=O)N2N=CCC2c2ccccc2)CC1 (stereo not drawn) [Compound 94, (4-(furan-2-carbonyl)piperazin-1-yl)(5-phenyl-4,5-dihydro-1H-pyrazol-1-yl)methanone], which EC50 is on record?
The EC50 was 1 to 10 µM.

For O=C(c1ccccc1)N1CCN(C(=O)N2N=CCC2c2ccccc2)CC1 (stereo not drawn) [Compound 95, (4-benzoylpiperazin-1-yl)(5-phenyl-4,5-dihydro-1H-pyrazol-1-yl)methanone], which EC50 is on record?
Its EC50 is 1 to 10 µM.

O=C(N1CCCN(c2ncc(F)cn2)CC1)N1N=CCC1c1ccccc1 (stereo not drawn) [Compound 96, (4-(5-fluoropyrimidin-2-yl)-1,4-diazepan-1-yl)(5-phenyl-4,5-dihydro-1H-pyrazol-1-yl)methanone] was tested. Which EC50 did it give?
Its EC50 is 1 to 10 µM.

For O=C(N1CCN(c2cncnc2)CC1)N1N=CCC1c1ccccc1 (stereo not drawn) [Compound 99, (5-phenyl-4,5-dihydro-1H-pyrazol-1-yl)(4-(pyrimidin-5-yl)piperazin-1-yl)methanone], which EC50 is on record?
The EC50 was 1 to 10 µM.

For O=C(N1CCN(c2ncc(F)cn2)CC1)N1N=CCC1c1cccc(F)c1 (stereo not drawn) [Compound 100, (5-(3-fluorophenyl)-4,5-dihydro-1H-pyrazol-1-yl)(4-(5-fluoropyrimidin-2-yl)piperazin-1-yl)methanone], which EC50 is on record?
The EC50 was 0.001 to 1 µM.

Which EC50 does the source give for O=C(N1CCN(c2ncc(F)cn2)CC1)N1N=CCC1c1cc(F)cc(F)c1 (stereo not drawn) [Compound 101, (5-(3,5-difluorophenyl)-4,5-dihydro-1H-pyrazol-1-yl)(4-(5-fluoropyrimidin-2-yl)piperazin-1-yl)methanone] here?
Its EC50 is 0.001 to 1 µM.

How did the EC50 turn out when Nc1ccnc(N2CCN(C(=O)N3N=CCC3c3ccccc3)CC2)n1 (stereo not drawn) [Compound 102, (4-(4-aminopyrimidin-2-yl)piperazin-1-yl)(5-phenyl-4,5-dihydro-1H-pyrazol-1-yl)methanone] was run?
The EC50 was 1 to 10 µM.

For O=C(N1CCN(c2nccc(O)n2)CC1)N1N=CCC1c1ccccc1 (stereo not drawn) [Compound 103, (4-(4-hydroxypyrimidin-2-yl)piperazin-1-yl)(5-phenyl-4,5-dihydro-1H-pyrazol-1-yl)methanone], which EC50 is on record?
The EC50 was 1 to 10 µM.

Cc1csc(N2CCN(C(=O)N3N=CCC3c3ccccc3)CC2)n1 (stereo not drawn) [Compound 105, (4-(4-methylthiazol-2-yl)piperazin-1-yl)(5-phenyl-4,5-dihydro-1H-pyrazol-1-yl)methanone] was tested. Which EC50 did it give?
Its EC50 is 1 to 10 µM.

Which EC50 does the source give for Cc1cnc(N2CCN(C(=O)N3N=CCC3c3ccccc3)CC2)s1 (stereo not drawn) [Compound 106, (4-(5-methylthiazol-2-yl)piperazin-1-yl)(5-phenyl-4,5-dihydro-1H-pyrazol-1-yl)methanone] here?
Its EC50 is 1 to 10 µM.

Which EC50 does the source give for N#Cc1cnc(N2CCN(C(=O)N3N=CCC3c3ccccc3)CC2)s1 (stereo not drawn) [Compound 108, 2-(4-(5-phenyl-4,5-dihydro-H-pyrazole-1-carbonyl)piperazin-1-yl)thiazole-5-carbonitrile] here?
The EC50 was 0.001 to 1 µM.

C[C@H]1CN(c2ncc(F)cn2)CCN1C(=O)N1OCC[C@H]1c1ccccc1 [Compound 109, ((S)-4-(5-fluoropyrimidin-2-yl)-2-methylpiperazin-1-yl)((S)-3-phenylisoxazolidin-2-yl)methanone] was tested. Which EC50 did it give?
The EC50 was 0.001 to 1 µM.

C[C@@H]1CN(c2ncc(F)cn2)C[C@H](C)N1C(=O)N1OCC[C@H]1c1ccccc1 [Compound 110, ((2R,6S)-4-(5-fluoropyrimidin-2-yl)-2,6-dimethylpiperazin-1-yl)((S)-3-phenylisoxazolidin-2-yl)methanone] was tested. Which EC50 did it give?
The EC50 was 0.001 to 1 µM.

For C[C@H]1CN(c2ncc(Cl)cn2)CCN1C(=O)N1N=CCC1c1ccccc1 (stereo partly drawn) [Compound 113A, ((S)-4-(5-chloropyrimidin-2-yl)-2-methylpiperazin-1-yl)(5-phenyl-4,5-dihydro-1H-pyrazol-1-yl)methanone], which EC50 is on record?
Its EC50 is 0.001 to 1 µM.

With C[C@H]1CN(c2ncc(Cl)cn2)CCN1C(=O)N1N=CCC1c1ccccc1 (stereo partly drawn) [Compound 113B, ((S)-4-(5-chloropyrimidin-2-yl)-2-methylpiperazin-1-yl)(5-phenyl-4,5-dihydro-1H-pyrazol-1-yl)methanone] as the molecule, how does the EC50 read?
The EC50 was 1 to 10 µM.

With C[C@@H]1CN(c2ncc(F)cn2)CCN1C(=O)N1N=CCC1c1ccccc1 (stereo partly drawn) [Compound 114A, ((R)-4-(5-fluoropyrimidin-2-yl)-2-methylpiperazin-1-yl)(5-phenyl-4,5-dihydro-1H-pyrazol-1-yl)methanone] as the molecule, how does the EC50 read?
Its EC50 is 0.001 to 1 µM.

Which EC50 does the source give for C[C@@H]1CN(c2ncc(F)cn2)CCN1C(=O)N1N=CCC1c1ccccc1 (stereo partly drawn) [Compound 114B, ((R)-4-(5-fluoropyrimidin-2-yl)-2-methylpiperazin-1-yl)(5-phenyl-4,5-dihydro-1H-pyrazol-1-yl)methanone] here?
Its EC50 is 1 to 10 µM.

C[C@H]1CN(c2ccc(F)cn2)CCN1C(=O)N1N=CCC1c1ccccc1 (stereo partly drawn) [Compound 115A, ((S)-4-(5-fluoropyridin-2-yl)-2-methylpiperazin-1-yl)(5-phenyl-4,5-dihydro-1H-pyrazol-1-yl)methanone] was tested. Which EC50 did it give?
The EC50 was 0.001 to 1 µM.

C[C@H]1CN(c2ncc(C#N)cn2)CCN1C(=O)N1N=CCC1c1ccccc1 (stereo partly drawn) [Compound 116B, 2-((3S)-3-methyl-4-(5-phenyl-4,5-dihydro-1H-pyrazole-1-carbonyl)piperazin-1-yl)pyrimidine-5-carbonitrile] was tested. Which EC50 did it give?
Its EC50 is 1 to 10 µM.

Which EC50 does the source give for C[C@H]1CN(c2ncc(F)cn2)CCN1C(=O)N1N=CCC1c1cccc(F)c1 (stereo partly drawn) [Compound 117A, ((S)-5-(3-fluorophenyl)-4,5-dihydro-H-pyrazol-1-yl)((S)-4-(5-fluoropyrimidin-2-yl)-2-methylpiperazin-1-yl)methanone] here?
The EC50 was 0.001 to 1 µM.

With C[C@H]1CN(c2ncc(F)cn2)CCN1C(=O)N1N=CC[C@@H]1c1cccc(F)c1 [Compound 117B, ((R)-5-(3-fluorophenyl)-4,5-dihydro-1H-pyrazol-1-yl)((S)-4-(5-fluoropyrimidin-2-yl)-2-methylpiperazin-1-yl)methanone] as the molecule, how does the EC50 read?
Its EC50 is 0.001 to 1 µM.

How did the EC50 turn out when C[C@H]1CN(c2ncc(F)cn2)CCN1C(=O)N1N=CC[C@H]1c1cc(F)cc(F)c1 [Compound 118A, ((S)-5-(3,5-difluorophenyl)-4,5-dihydro-1H-pyrazol-1-yl)((S)-4-(5-fluoropyrimidin-2-yl)-2-methylpiperazin-1-yl)methanone] was run?
Its EC50 is 0.001 to 1 µM.

Which EC50 does the source give for C[C@H]1CN(c2ncc(F)cn2)CCN1C(=O)N1N=CC[C@@H]1c1cc(F)cc(F)c1 [Compound 118B, ((R)-5-(3,5-difluorophenyl)-4,5-dihydro-1H-pyrazol-1-yl)((S)-4-(5-fluoropyrimidin-2-yl)-2-methylpiperazin-1-yl)methanone] here?
Its EC50 is 0.001 to 1 µM.

With O=C(N1CC(Oc2cnccn2)C1)N1N=CCC1c1ccccc1 (stereo not drawn) [Compound 119, (5-phenyl-4,5-dihydro-1H-pyrazol-1-yl)(3-(pyrazin-2-yloxy)azetidin-1-yl)methanone] as the molecule, how does the EC50 read?
Its EC50 is 0.001 to 1 µM.

N#Cc1cnc(OC2CN(C(=O)N3N=CCC3c3ccccc3)C2)s1 (stereo not drawn) [Compound 120, 2-((1-(5-phenyl-4,5-dihydro-1H-pyrazole-1-carbonyl)azetidin-3-yl)oxy)thiazole-5-carbonitrile] was tested. Which EC50 did it give?
Its EC50 is 1 to 10 µM.

How did the EC50 turn out when N#Cc1csc(OC2CN(C(=O)N3N=CCC3c3ccccc3)C2)n1 (stereo not drawn) [Compound 121, 2-((1-(5-phenyl-4,5-dihydro-1H-pyrazole-1-carbonyl)azetidin-3-yl)oxy)thiazole-4-carbonitrile] was run?
The EC50 was 0.001 to 1 µM.

C[C@@H]1CN(c2ncc(F)cn2)C[C@@H](C)N1C(=O)N1N=CCC1c1ccccc1 (stereo partly drawn) [Compound 122, ((2R,6R)-4-(5-fluoropyrimidin-2-yl)-2,6-dimethylpiperazin-1-yl)(5-phenyl-4,5-dihydro-1H-pyrazol-1-yl)methanone] was tested. Which EC50 did it give?
The EC50 was 1 to 10 µM.

Which EC50 does the source give for CC(=C1CN(C(=O)N2N=CCC2c2ccccc2)C1)c1ccccc1 (stereo not drawn) [Compound 123, (5-phenyl-4,5-dihydro-1H-pyrazol-1-yl)(3-(1-phenylethylidene)azetidin-1-yl)methanone] here?
The EC50 was 0.001 to 1 µM.

How did the EC50 turn out when CC(c1ccccc1)C1CN(C(=O)N2N=CCC2c2ccccc2)C1 (stereo not drawn) [Compound 124, (5-phenyl-4,5-dihydro-1H-pyrazol-1-yl)(3-(1-phenylethyl)azetidin-1-yl)methanone] was run?
Its EC50 is 1 to 10 µM.

For C#Cc1cc(OC2CN(C(=O)N3N=CCC3c3ccccc3)C2)ncn1 (stereo not drawn) [Compound 125, (3-((6-ethynylpyrimidin-4-yl)oxy)azetidin-1-yl)(5-phenyl-4,5-dihydro-1H-pyrazol-1-yl)methanone], which EC50 is on record?
Its EC50 is 1 to 10 µM.

For O=C(N1CC(Oc2c(F)cc(F)cc2F)C1)N1N=CCC1c1cc(F)cc(F)c1 (stereo not drawn) [Compound 126, (5-(3,5-difluorophenyl)-4,5-dihydro-1H-pyrazol-1-yl)(3-(2,4,6-trifluorophenoxy)azetidin-1-yl)methanone], which EC50 is on record?
Its EC50 is 0.001 to 1 µM.

O=C(N1CC(Oc2cc(Br)ncn2)C1)N1N=CCC1c1ccccc1 (stereo not drawn) [Compound 127, (3-((6-bromopyrimidin-4-yl)oxy)azetidin-1-yl)(5-phenyl-4,5-dihydro-1H-pyrazol-1-yl)methanone] was tested. Which EC50 did it give?
The EC50 was 0.001 to 1 µM.

O=C(N1CC(Oc2cc(F)ccc2F)C1)N1N=CCC1c1ccccc1 (stereo not drawn) [Compound 128, (3-(2,5-difluorophenoxy)azetidin-1-yl)(5-phenyl-4,5-dihydro-1H-pyrazol-1-yl)methanone] was tested. Which EC50 did it give?
The EC50 was 0.001 to 1 µM.

NC(=O)c1cccc(OC2CN(C(=O)N3N=CCC3c3cc(F)cc(F)c3)C2)c1 (stereo not drawn) [Compound 129, 3-((1-(5-(3,5-difluorophenyl)-4,5-dihydro-1H-pyrazole-1-carbonyl)azetidin-3-yl)oxy)benzamide] was tested. Which EC50 did it give?
The EC50 was 0.001 to 1 µM.

Which EC50 does the source give for NC(=O)c1ccc(OC2CN(C(=O)N3N=CCC3c3cc(F)cc(F)c3)C2)cc1 (stereo not drawn) [Compound 130, 4-((1-(5-(3,5-difluorophenyl)-4,5-dihydro-1H-pyrazole-1-carbonyl)azetidin-3-yl)oxy)benzamide] here?
The EC50 was 0.001 to 1 µM.
